Reference: publication PMC11062894, “Protein-based bandpass filters for controlling cellular signaling with chemical inputs” (Nature Chemical Biology, 2023)

Tested on: HEK293T cells
Assay type: cell-based
Settings: 10 µM A-1155463
Description: drug controlled switches. […]
drug competition assay. This assay is designed to test if the drug of interest can specifically disrupt the interaction between LD3 and BclXL/Bcl2. The drug-receptors (Bcl2, BclXL) are immobilized on the different channels of the sensor chip, then the binding sites are saturated with LD3. While the flux of A-1155463 (red) flows through the sensor chip, the loss of signal is used to monitor the dissociation of the protein complex. b) Drug effects on reporter protein expression of HEK293T cells. HEK293T cells were transfected with a plasmid for constitutive SEAP production and incubated with indicated drugs for 24 hours. SEAP quantifications were performed to measure the protein production and WST-8 was used to test the cell proliferation. Each bar represents the mean of six biological replicates ± s.d., overlaid with a scatter dot plot of the original data points. […]
was added after 24 hours of drug incubation, and measured for absorbance at 450 nm 4 hours later. […]
production of HEK293T cells. […] SEAP quantifications were performed to measure the protein production and WST-8 was used to test the cell proliferation. For cell proliferation assay, WST-8 was added after 24 hours of drug incubation, and measured its absorbance at 450 nm 4 hours later. […]
ranging from 1 pM to 1 µM were added 12 hours post-transfection, then SEAP was measured 24 hours […]

For `CN(C)CC#Cc1ccc(OCCCc2sc(N3CCc4cccc(C(=O)Nc5nc6ccccc6s5)c4C3)nc2C(=O)O)c(F)c1` [A-1155463], the “effect on cell survival” value was “does not perturb” and the “effect on reporter gene expression” value was “does not perturb”.
